One assay deals with 5×FAD mice. Nature of the assay: Cognitive function analysis, Y-shaped maze score of alternation behavior. It counts as in vivo, mouse. The conditions noted are these: tested at 6 months of age. The method, then:
The administration of AAV-YAPΔC-ins61 or AAV-NINS (titer: 1×10^10 vector genomes/mL each, 1 μL) to mouse RSD (retrosplenial cortex) (depth of −2.0 mm from the bregma and 0.6 mm mediolaterally) and the subarachnoidal administration of S1P (40 nM, 0.15 μL/hr; manufactured by Sigma-Aldrich Co. LLC) or control artificial cerebrospinal fluid (aCSF) (0.15 μL/hr; manufactured by Alzet Osmotic Pressures) to the mice were performed according to the method described in the document “Yang, G. et al., Nat Protoc 5, 201-208 (2010)”. The administration of AAV-YAPΔC-ins61 or AAV-NINS to the mice was performed at 1 or 5 months of age. The administration of S1P to the mice was continuously performed for a period from 1 to 6 months of age or for a period from 5 to 6 months of age.
The normal mice (non-transgenic B6/SJL mice) or the 5×FAD mice given AAV-YAPΔC-ins61 or AAV-NINS, or S1P were tested for their exploratory behavior when aged 6 months using a Y-shaped maze (manufactured by O'HARA & Co., Ltd.) in which three arms of the same size were joined at […]
A value obtained by dividing the number of movements from the immediately preceding arm where the mouse stayed to an arm different from the immediately preceding arm where the mouse stayed by the number of movements in the arms was calculated as the rate of spontaneous alternation (score of alternation behavior; see FIG. 14).

Assay [1] relates to ER in brain neurons of 5×FAD mice. Nature of the assay: In vivo imaging of ER volumes in brain neurons (ER-Tracker Red). Set-up: species or system mouse. The following applies: 5×FAD mice given at 1 month of age, measured at 6 months of age (FIGS. 13 and 15). How it is done: The skull bones on RSD surface of normal mice (non-transgenic B6/SJL mice) or 5×FAD mice were removed using a high-speed microdrill. 1 μL of a liquid containing 100 nM amyloid-binding substance BTA1 (2-(4′-(methylamino)phenyl) benzothiazole, manufactured by Sigma-Aldrich Co. LLC) and 100 nM ER-Tracker Red (E34250, manufactured by Thermo
Fisher Scientific Inc.) was injected to RSD in the presence of 1% isoflurane (anesthetic). 4 hours later, ER-Tracker Red was imaged using an upright microscope (BX61WI, manufactured by Olympus Corp.) and a scanning laser microscope system FV1000MPE2 (manufactured by Olympus Corp.) equipped with an immersion objective lens (XLPlanN25xW, numerical aperture: 1.05) and a pulse laser (MaiTaiHP DeepSee, manufactured by Spectra-Physics, Inc.) to obtain images of detected BTA1 fluorescence signals (BTA1 images) and images of detected ER-Tracker Red fluorescence signals (ER-Tracker images). The fluorescence signal volumes of ER-Tracker Red (i.e., volumes of ER) were measured. […]

Assay [2] concerns pSer46-MARCKS in brain neurons of 5×FAD mice. Nature of the assay: pSer46-MARCKS levels of brain neurons by immunohistochemical staining. Format: in vivo, mouse. The following applies: 5×FAD mice given at 1 month of age, measured at 6 months of age, vs 5×FAD mice without administration (FIG. 16).
Assay [3] has as its system nuclear YAP in brain neurons of 5×FAD mice. Nature of the assay: Amounts of nuclear YAP in brain neurons by immunohistochemical staining. The conditions noted are these: 5×FAD mice given at 1 month of age, measured at 6 months of age, vs 5×FAD mice without administration (FIG. 10). It counts as in vivo, mouse. How it is done:
(§1) Brain tissues were excised from the test subjects or the AD mouse models and fixed in a 4% PFA (paraformaldehyde) solution. Then, 5 µm thick paraffin sections were prepared using a microtome (manufactured by Yamato Kohki Industrial Co., Ltd.). […] Fluorescence signals derived from each primary antibody were detected using a fluorescence microscope (IX70, manufactured by Olympus Corp.) or a confocal laser scanning microscope (FV1200, manufactured by Olympus Corp.) to obtain images (specifically, YAP images, phosphorylated LATS1 serine 909 (Ser909) [pLATS1] images, images of the detected DAPI fluorescence signals derived from the cells nuclei (DAPI images), and overlaid images thereof (merged images). In the DAPI images, cells having the deformed and/or shrunk cell nuclei were evaluated as necrotic cells, and the numbers of necrotic cells in 30 fields of view (143 μm×143 μm) were measured to calculate a necrotic cell number per field of view (see the ordinates of FIGS. 5A to 5C). […]

Assay [4] has as its system extracellular amyloid β in brain tissues of 5×FAD mice. Kind of assay: Extracellular amyloid β levels of brain tissues by immunohistochemical staining. It counts as in vivo, mouse. The conditions noted are these: 5×FAD mice given at 1 month of age, measured at 6 months of age, vs 5×FAD mice without administration (FIG. 11). How it is done:
as §1

Data on one compound can be found in US20220296620A1, “AGENT FOR PREVENTING OR TREATING MILD COGNITIVE IMPAIRMENT” (NATIONAL UNIVERSITY CORPORATION TOKYO MEDICAL AND DENTAL …, priority 2019, published 2022).

For the compound `CCCCCCCCCCCCC/C=C/[C@@H](O)[C@@H](N)COP(=O)(O)O` [SiP, sphingosine 1-phosphate], the “cognitive functions (score of alternation behavior, Y-shaped maze)” value in the assay with 5×FAD mice (5×FAD mice given at 1 month of age, vs 5×FAD mice without administration (FIGS. 17A and 17B)) is “equivalent to the ones of normal mice”; in the assay with 5×FAD mice (5×FAD mice given at 5 months of age, vs 5×FAD mice without administration (FIGS. 17C and 17D)), “equivalent to the ones of normal mice”. Also, in assay [1], the “ER dilation and instability in brain neurons” value was “significantly resolved ER dilation and instability”. Also, in assay [2], the “pSer46-MARCKS levels of brain neurons” value is “decreased to the levels of normal mice”. In assay [3], the “amounts of nuclear YAP in brain neurons” value is recorded as “increased and/or restored to the levels of normal mice”. Also, the “extracellular amyloid β levels of brain tissues” value in assay [4] is “lower”.
